Measurements: paper PMC4604765, “Eye drop delivery of pigment epithelium-derived factor-34 promotes retinal ganglion cell neuroprotection and axon regeneration” (Molecular and Cellular Neurosciences, 2015)
No end group written: not given here.

Key:
[1] = system: embryonic rat spinal motor neurons; details: ref Bilak et al., 2002; cited from earlier work
From the text: Axotomised RGCs are not viable unless treated with neurotrophic factors such as brain-derived neurotrophic factor, ciliary neurotrophic factor and glial cell line-derived factor ([Ahmed et al., 2006b; Benowitz and Yin, 2007; Watanabe et al., 2003; Yip and So, 2000]). Recently, we confirmed that, after optic nerve crush (ONC), PEDF is RGC neuroprotective and axogenic ([Vigneswara et al., 2013]), whilst other neuroprotective and anti-angiogenic N-terminal fragments of the native peptide exist ([Bilak et al., 2002; Gvritishvili et al., 2010; Li et al., 2006; Mirochnik et al., 2009]) including the ...

[2] = Stability in culture media and on long-term storage; details: no data shown

In the case of “DPFFKVPVNKLAAAVSNFGYDLYRVRSSTSPTTN [PEDF-34]”, the “neuroprotection of embryonic rat spinal motor neurons” value [1] is given as “not neuroprotective”, the “stability in culture media” value ([2]; PEDF-34 compared with PEDF-44) is given as “equally stable” and the “neurotrophic properties after long-term storage” value [2] is given as “retained their neurotrophic properties”.
